Earlier results, collected in patent US20220362242A1, “METHODS AND COMPOSITIONS FOR TREATING MOVEMENT DISORDERS” (Edgewise Therapeutics, Inc., priority 2018, published 2022).

Tested on: embryos from zebrafish model of DMD
Conditions: control vs BTS treated muscles, FIG. 2

## Cc1ccc(S(=O)(=O)NCc2ccccc2)cc1 [BTS, N-benzyl-p-tolyl-sulfonamide]
  protection of muscles from pathological muscle derangement: protect muscles from pathological muscle derangement
